In data set [1] the target is T1, human PPARγ-LBD (Homo sapiens, UniProt P37231).
T1 sequence (P37231 203-477 isoform P37231-2): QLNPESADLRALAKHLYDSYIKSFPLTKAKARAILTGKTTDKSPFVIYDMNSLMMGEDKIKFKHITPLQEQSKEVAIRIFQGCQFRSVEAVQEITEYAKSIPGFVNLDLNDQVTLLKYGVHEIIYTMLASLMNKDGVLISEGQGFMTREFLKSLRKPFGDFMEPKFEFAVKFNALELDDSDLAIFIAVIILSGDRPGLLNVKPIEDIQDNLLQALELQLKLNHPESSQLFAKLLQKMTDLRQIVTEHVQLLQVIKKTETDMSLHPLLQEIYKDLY
In words: TR-FRET SRC1 coactivator peptide recruitment assay, PPARγ-LBD.

The target of data set [2] is T2, GAL4–human PPARγ-LBD chimera (Homo sapiens, UniProt P37231).
T2 sequence (P37231 238-503 limits assumed): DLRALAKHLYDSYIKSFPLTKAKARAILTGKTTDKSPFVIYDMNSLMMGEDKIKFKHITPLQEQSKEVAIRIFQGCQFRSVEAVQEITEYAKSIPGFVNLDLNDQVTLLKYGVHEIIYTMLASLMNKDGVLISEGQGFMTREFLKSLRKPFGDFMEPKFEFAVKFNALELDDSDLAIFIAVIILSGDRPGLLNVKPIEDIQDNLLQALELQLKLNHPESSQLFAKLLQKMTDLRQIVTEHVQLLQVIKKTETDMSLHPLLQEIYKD
The data set can be described thus: GAL4–hPPARγ-LBD dual luciferase transactivation assay in COS-7 cells. Conditions: for efficacy, PPARγ-LBD-mediated transactivation: maximal effect of GW1929 (1 µM) as 100%.

The target in data set [3] is T1, human PPARγ-LBD. The data set can be described thus: TR-FRET PGC1α coactivator peptide recruitment assay, PPARγ-LBD. In general terms: Time-resolved FRET reads energy transfer from a long-lived donor to a nearby acceptor.
In data set [4] the test system is PPARα. Also on record: method as in PMID 14982965. As to conditions: read-out: EC50, PPARα transactivation, previous experiments; cited from earlier work.
The test system of data set [5] is PPARδ. The arrangement: method as in PMID 14982965. As to conditions: read-out: EC50, PPARδ transactivation, previous experiments; cited from earlier work.
The target of data set [6] is T3, PPARδ-LBD (Homo sapiens, UniProt Q03181).
T3 sequence (Q03181 170-441): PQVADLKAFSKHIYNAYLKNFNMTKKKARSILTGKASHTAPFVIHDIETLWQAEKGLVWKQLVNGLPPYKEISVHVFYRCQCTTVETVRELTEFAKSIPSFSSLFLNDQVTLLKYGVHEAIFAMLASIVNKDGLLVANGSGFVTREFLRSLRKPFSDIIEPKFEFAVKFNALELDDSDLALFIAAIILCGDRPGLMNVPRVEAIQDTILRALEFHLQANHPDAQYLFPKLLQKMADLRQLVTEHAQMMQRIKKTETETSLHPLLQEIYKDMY
In words: TR-FRET SRC1 coactivator peptide recruitment assay, PPARδ-LBD.

Data set [7] addresses T4, GAL4–human PPARα-LBD chimera (Homo sapiens, UniProt Q07869).
T4 sequence (Q07869 239-466 limits assumed): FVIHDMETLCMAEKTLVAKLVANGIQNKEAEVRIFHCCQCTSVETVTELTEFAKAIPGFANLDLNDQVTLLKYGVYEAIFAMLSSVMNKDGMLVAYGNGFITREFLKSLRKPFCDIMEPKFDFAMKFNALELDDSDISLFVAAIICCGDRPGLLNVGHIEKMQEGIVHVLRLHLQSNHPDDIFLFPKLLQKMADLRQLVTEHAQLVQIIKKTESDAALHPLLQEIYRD
In words: GAL4–hPPARα-LBD dual luciferase transactivation assay in COS-7 cells.

The subject of data set [8] is PPARγ. Also on record: method as in PMID 14982965. As to conditions: read-out: EC50, PPARγ transactivation, previous experiments; cited from earlier work.
Data set [9] has as its target T5, GAL4–human PPARδ-LBD chimera (Homo sapiens, UniProt Q03181).
T5 sequence (Q03181 211-439 limits assumed): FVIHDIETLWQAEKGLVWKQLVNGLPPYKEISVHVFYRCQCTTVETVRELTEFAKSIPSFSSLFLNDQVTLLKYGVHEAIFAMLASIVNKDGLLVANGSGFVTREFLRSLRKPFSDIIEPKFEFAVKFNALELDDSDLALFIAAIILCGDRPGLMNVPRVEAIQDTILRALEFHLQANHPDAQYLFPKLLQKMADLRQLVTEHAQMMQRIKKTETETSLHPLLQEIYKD
In words: GAL4–hPPARδ-LBD dual luciferase transactivation assay in COS-7 cells. As to conditions: for efficacy, PPARδ-LBD-mediated transactivation: maximal effect of GW501516 (0.02 µM) as 100%.

The conditions of data set [10]: single dose (200 mg) of bezafibrate; read-out: maximal plasma concentration (Cmax); cited from earlier work.
Data set [11] deals with T3, PPARδ-LBD. In words: TR-FRET PGC1α coactivator peptide recruitment assay, PPARδ-LBD.
For data set [12], the target named is T3, PPARδ-LBD. In words: Circular dichroism thermostability assay, PPARδ-LBD. It is filed as binding. The arrangement: His-tag (pET28a) (N, cleaved yes); made in house; host or cells: E. coli Rosetta (DE3) pLysS. As to conditions: CD at 222 nm, 10 µM protein, versus 0.1% DMSO. The protocol:
Ligand-induced alterations in Tm values at 222 nm were investigated as types of reflection of α-helical stable structures of PPARs because PPAR ligand binding induces stabilization of the LBP [23, 24].
PPARα/δ/γ-LBD proteins (10 µM) were incubated with different concentrations of ligands in buffer A. CD spectra were monitored within 200–260 nm at increasing temperatures from 30 °C to 70 °C (2 °C/min) using a J-1500 spectropolarimeter equipped with a PTC-510 thermal controller (JASCO, Tokyo, Japan). […] The thermal stability of PPARs was investigated by continuously monitoring the ellipticity changes at 222 nm during thermal denaturation, and a single-site sigmoidal dose-response curve fitting program (Prism 5) was used to obtain the melting temperature (Tm) that corresponds to the midpoint of the denaturation process. The ligand-induced increases in Tm values are defined as ∆Tm.
On the technique in general: CD spectra are sensitive to the conformation of chiral molecules.

Data set [13] addresses T6, human PPARα-LBD (Homo sapiens, UniProt Q07869).
T6 sequence (Q07869 200-468): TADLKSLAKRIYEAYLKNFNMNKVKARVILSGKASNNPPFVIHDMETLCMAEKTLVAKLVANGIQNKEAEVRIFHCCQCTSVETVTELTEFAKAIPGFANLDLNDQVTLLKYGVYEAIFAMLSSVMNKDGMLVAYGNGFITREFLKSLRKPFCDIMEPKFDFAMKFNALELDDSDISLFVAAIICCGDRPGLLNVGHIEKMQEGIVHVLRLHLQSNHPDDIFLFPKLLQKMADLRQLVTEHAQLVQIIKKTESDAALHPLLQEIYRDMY
In words: TR-FRET SRC1 coactivator peptide recruitment assay, PPARα-LBD.

The target in data set [14] is T6, human PPARα-LBD. The data set can be described thus: TR-FRET PGC1α coactivator peptide recruitment assay, PPARα-LBD.
Where [15] appears, read: COS-7 cells, maximal effect of GW7647 (0.1 µM) as 100%.

This is an account of results in paper PMC9102038 (International Journal of Molecular Sciences, 2022).

Read-outs that look alike come from different tables or passages of the source.

GW1929: the “maximal effect, SRC1 recruitment to PPARγ-LBD (× of the basal activity)” value in data set [1] (at 1 µM) was 9.26 ×. Moreover, in [2] (COS-7 cells, at 1 µM), the “maximal effect, PPARγ-LBD-mediated transactivation (× of the basal activity)” value is 2.26 ×. Also, the “maximal effect, PGC1α recruitment to PPARγ-LBD (× of the basal activity)” value in data set [3] (at 1 µM) worked out at 5.80 ×.
Turning to `CC(C)(Oc1ccc(CCNC(=O)c2ccc(Cl)cc2)cc1)C(=O)O` [bezafibrate], the EC50 (usually the midpoint of the concentration-response curve) in [4] is 25 µM; in data set [1], 76 µM; in data set [5] it was 95 µM; in data set [6], 31.8 µM; in [2], 178 µM; in data set [3], 48.9 µM. For the same compound, the EC50 is over 100 µM in data set [8] and 86.7 µM in [9]. For the same compound, the “efficacy, PPARγ-LBD-mediated transactivation” value in data set [2] (COS-7 cells) is 77.1%. In [7], the “efficacy, PPARα-LBD-mediated transactivation” value is given as 93.6%. Also, the “efficacy, PPARδ-LBD-mediated transactivation” value in [9] (COS-7 cells) is recorded as 15.2%. Moreover, in data set [10], the Cmax was 20.4 µM.
Turning to `CC[C@@H](Oc1cccc(CN(CCCOc2ccc(OC)cc2)c2nc3ccccc3o2)c1)C(=O)O` [pemafibrate], the EC50 was over 10 µM in data set [1]; 6.11 µM in data set [11]; 4.82 µM in data set [6]; over 5 µM in [2]; 9.7 µM in data set [3]; 1.39 µM in data set [9]. Moreover, the “efficacy, PPARγ-LBD-mediated transactivation” value in data set [2] (COS-7 cells) worked out at 119%. For the same compound, the “efficacy, PPARα-LBD-mediated transactivation” value in data set [7] (setting [15]) is on record as 107%. For the same compound, in [9] (COS-7 cells), the “efficacy, PPARδ-LBD-mediated transactivation” value came out at 11.3%.
Take `CC(C)(Oc1ccc(C(=O)c2ccc(Cl)cc2)cc1)C(=O)O` [fenofibric acid]: the EC50 is over 100 µM in data set [11]; over 500 µM in data set [6]; 9.87 µM in [13]; 9.47 µM in data set [7]; over 500 µM in data set [9]; 20.9 µM in data set [14]. The “PGC1α recruitment to PPARδ-LBD (in words)” value in data set [11] (TR-FRET) was “did not recruit PGC1α”. Moreover, the “effect on Tm of PPARδ-LBD (thermostability, in words)” value in [12] was “increased thermostability”. Besides, the “efficacy, PPARγ-LBD-mediated transactivation” value in data set [2] (COS-7 cells) amounted to 87.7%. Besides, the “efficacy, PPARα-LBD-mediated transactivation” value in data set [7] (setting [15]) is listed as 104%. Also, the “PPARδ-LBD-mediated transactivation (in words)” value in data set [9] (COS-7 cells) is recorded as “did not induce transactivation”.
As to `CC(C)(Sc1ccc(CCN(CCCCC2CCCCC2)C(=O)NC2CCCCC2)cc1)C(=O)O` [GW7647], in data set [13] (at 1 µM), the “maximal effect, SRC1 recruitment to PPARα-LBD (× of the basal activity)” value turned out to be 6.12 ×. Also, the “maximal effect, PPARα-LBD-mediated transactivation (× of the basal activity)” value in data set [7] (COS-7 cells, at 0.1 µM) was 5.73 ×. Moreover, the “maximal effect, PGC1α recruitment to PPARα-LBD (× of the basal activity)” value in data set [14] (at 1 µM) amounted to 8.87 ×.
